{"source": "patent US20230348987A1", "about": "“METHODS AND COMPOSITIONS FOR TREATING CANCER” (PROMETTRE RESEARCH PTY LTD, priority 2020, published 2023)", "key": {"[1]": {"test_system": "EGR4-S in HER2+ breast cancer cells (SKBR3)", "test": "EGR4-S expression in cells cultured in increasing Lapatinib concentrations over 7 weeks (FIG. 12)", "format": "cell-based", "procedure": "(§1) Generation of protein lysates from cells was performed according to a previously published protocol (Price et al., 2005). Equal concentrations of protein lysates were combined with loading buffer (Invitrogen) and sample reducing agent (Invitrogen), denatured for 5 minutes at 95° C. then separated through gel electrophoresis in a 4-to-12% Bis-Tris NuPAGE gel (Invitrogen) with 1×MES buffer (Invitrogen) and antioxidant (Invitrogen). Following separation, the proteins were electrophoretically transferred onto nitrocellulose membranes using the iBlot western detection stack/iBlot dry blotting system (Thermofisher) for seven minutes at 23V. All membranes were then processed at room temperature overnight using the […] (Thermofisher) containing primary antibodies, iBind wash solution and horseradish peroxidase-conjugated secondary antibodies. Blots were developed using Clarity Western ECL (Bio-RAD), and images were captured using a Fusion FX imaging machine (Vilber). All antibodies were purchased from commercial sources and included, anti-HSF1 (catalogue number SPA-901), anti-HSP27 (catalogue number SPA-800) and anti-HSP90a (catalogue number SPA-835) antibodies from Enzo Life Sciences; anti-HSP105/110 (catalogue number Sc-6241) antibody from Santa Cruz Biotechnology; anti-Ha-Ras (catalogue number 05-775) antibody from Merck Millipore; anti-actin (catalogue number MS-1295-P0) and anti-HSP70i (catalogue number MS-482-P0) antibodies from Thermo Scientific; anti-p53 (catalogue number 51-9002046) from BD Pharmingen; anti-pHER2/ErbB2 (catalogue number Ab53290), anti-pAkt (catalogue number MISCGENLAB), anti-pEGFR catalogue number SCZSC-12351), anti-total EGFR catalogue number SCZSC-120) from Abcam, anti-total Akt (catalogue number 9272) and anti-HER2/ErbB2 (catalogue number Ab134182) from Cell Signalling, anti-EGR4 (catalogue number AV38090) (Sigma), anti-EGR4 (catalogue number PA5-50496) (Thermofisher), and anti-EGR4 (catalogue number SC133540) (Santa Cruz).\nThe cell line was cultured in increasing concentrations of Lapatinib over the course of seven weeks to investigate whether EGR4-S expression would be affected during prolonged treatment with Lapatinib."}, "[2]": {"test_system": "EGR4-S in HER2+ cells", "test": "Lapatinib treatment of HER2+ cells with elevated or lowered HSF1 (FIG. 15A/B)", "format": "cell-based", "procedure": "as §1"}, "[3]": {"test_system": "HER signalling pathway (pHER2, pAKT, EGR4-S) in HER2+ breast cancer cells", "conditions": "for EGR4-S expression: increasing drug concentrations, FIG. 3", "protocol": "Generation of protein lysates from cells was performed according to a previously published protocol (Price et al., 2005). Equal concentrations of protein lysates were combined with loading buffer (Invitrogen) and sample reducing agent (Invitrogen), denatured for 5 minutes at 95° C. then separated through gel electrophoresis in a 4-to-12% Bis-Tris NuPAGE gel (Invitrogen) with 1×MES buffer (Invitrogen) and antioxidant (Invitrogen). Following separation, the proteins were electrophoretically transferred onto nitrocellulose membranes using the iBlot western detection stack/iBlot dry blotting system (Thermofisher) for seven minutes at 23V. All membranes were then processed at room temperature overnight using the iBlot Western system (Thermofisher) containing primary antibodies, iBind wash solution and horseradish peroxidase-conjugated secondary antibodies. Blots were developed using Clarity Western ECL (Bio-RAD), and images were captured using a Fusion FX imaging machine (Vilber).\nThe effect of modulators that target the HER signalling pathway (TKIs such as Lapatinib, Gefitinib and Erlotinib) on EGR4-S expression was examined."}, "[4]": {"test_system": "HSP105, HSP70, pHER2, total HER2 and EGR4-S expression", "test": "Western blot after treatment with cell stress activating compounds (FIG. 4E)", "format": "cell-based", "procedure": "The MCF10A cell line was obtained from the A.T.C.C. (Manassas, VA, U.S.A.) and cultured as described previously (Debnath et al., 2003). T47D cells, SkBr3 cells, Hs578T and HEK-293T cells were cultured as described by Nguyen et al (2013). MDA-361, ZR75-1, BT-474, MDA-453, MDA-468, MDA-231, BT549 and MCF7 cells were cultured in Dulbecco's Modified Eagle's medium supplemented with 10% (v/v) fetal bovine serum and 1% (w/v) penicillin/streptomycin. In addition, MCF7 growth media was supplemented with 10 ng/ml insulin. All stable cell lines were generated by retroviral or lentiviral transduction as per Debnath et al. (2003). Viral stocks were generated by transient transfection of appropriate viral packaging vectors into the HEK-293T cell line as described by Lang and colleagues (2012). Drugs/compounds used for treating the cells were purchased from commercial sources, including Lapatinib, Erlotinib, Gefinitib and AUY922 from Sigma, and Sulfurophane from Santa Cruz Biotechnology. HSF1-targeted shRNAmir (microRNA-adapted short hairpin RNA) vectors were constructed as described previously (Lang et al., 2012). EGR4-targeted shRNAmir were purchased from Millenium Science.\nas §1"}}, "note": "“Also recorded” adds a separate entry of the source.", "data": [{"smiles": "CS(=O)(=O)CCNCc1ccc(-c2ccc3ncnc(Nc4ccc(OCc5cccc(F)c5)c(Cl)c4)c3c2)o1", "note": "[Lapatinib]", "values": [{"measurement": "EGR4-S expression", "setting": "[1]; SKBR3, week 5, 300 nM Lapatinib, vs control", "value": "less EGR4-S compared to the control"}, {"measurement": "EGR4-S expression", "setting": "[1]; SKBR3, week 7, 600 nM Lapatinib", "value": "returning to control levels"}, {"measurement": "EGR4-S expression", "setting": "[1]; after 3 weeks of treatment, vs untreated control", "value": "reduced levels of EGR4-S"}, {"measurement": "EGR4-S expression", "setting": "[1]; prolonged treatment, vs untreated control cells", "value": "unchanged"}, {"measurement": "EGR4-S expression", "setting": "[2]; HER2+ cells, dose-dependent, FIG. 15A", "value": "reduced EGR4-S expression in a dose-dependent manner"}, {"measurement": "response of EGR4-S expression", "setting": "[2]; HSF1 levels lowered, equivalent doses, FIG. 15B", "value": "did not respond as readily"}, {"measurement": "reduction of EGR4-S expression", "setting": "[2]; with elevated HSF1, FIG. 15A", "value": "more pronounced"}, {"measurement": "EGR4-S expression over time", "setting": "[3]; different types of HER2+ breast cancer cells, FIG. 3B", "value": "maintained over time"}, {"measurement": "EGR4-S expression", "setting": "[3]", "value": "regulated"}]}, {"smiles": "COc1cc2ncnc(Nc3ccc(F)c(Cl)c3)c2cc1OCCCN1CCOCC1", "note": "[Gefitinib]", "values": [{"measurement": "EGR4-S expression", "setting": "[3]", "value": "regulated"}]}, {"smiles": "CCNC(=O)c1noc(-c2cc(C(C)C)c(O)cc2O)c1-c1ccc(CN2CCOCC2)cc1", "note": "[AUY922]", "values": [{"measurement": "EGR4-S expression", "setting": "[4]; higher concentrations", "value": "decreased; also recorded: reducing EGR4-S expression"}, {"measurement": "HSP105 expression", "setting": "[4]; higher concentrations", "value": "increased"}, {"measurement": "pHER2 expression", "setting": "[4]; higher concentrations", "value": "decreased"}, {"measurement": "total HER2 expression", "setting": "[4]; higher concentrations", "value": "decreased"}]}, {"smiles": "C#Cc1cccc(Nc2ncnc3cc(OCCOC)c(OCCOC)cc23)c1", "note": "[Erlotinib]", "values": [{"measurement": "EGR4-S expression", "setting": "[3]", "value": "regulated"}]}, {"smiles": "C[S+]([O-])CCCCN=C=S", "note": "(stereo not shown) [Sulfurophane, Sulforaphane]", "values": [{"measurement": "HSP70 expression", "setting": "[4]; greater treatment concentrations", "value": "increased"}, {"measurement": "EGR4-S expression", "setting": "[4]; higher concentrations", "value": "reductions"}, {"measurement": "pHER2 expression", "setting": "[4]; higher concentrations", "value": "reductions"}, {"measurement": "EGR4-S expression", "setting": "[4]; higher concentrations, listed as Sulforaphane", "value": "reducing EGR4-S expression"}]}]}
